The record followed here is paper PMC9124820, “In vitro evaluation of fenfluramine and norfenfluramine as victims of drug interactions” (Pharmacology Research & Perspectives, 2022).

The structures appear in SMILES notation.

In the data set the target is T1, rCYP1A2 (Homo sapiens, UniProt P05177).
T1 construct: purchased Cypex, Ltd; host or cells: Escherichia coli
T1 sequence (P05177 1-516): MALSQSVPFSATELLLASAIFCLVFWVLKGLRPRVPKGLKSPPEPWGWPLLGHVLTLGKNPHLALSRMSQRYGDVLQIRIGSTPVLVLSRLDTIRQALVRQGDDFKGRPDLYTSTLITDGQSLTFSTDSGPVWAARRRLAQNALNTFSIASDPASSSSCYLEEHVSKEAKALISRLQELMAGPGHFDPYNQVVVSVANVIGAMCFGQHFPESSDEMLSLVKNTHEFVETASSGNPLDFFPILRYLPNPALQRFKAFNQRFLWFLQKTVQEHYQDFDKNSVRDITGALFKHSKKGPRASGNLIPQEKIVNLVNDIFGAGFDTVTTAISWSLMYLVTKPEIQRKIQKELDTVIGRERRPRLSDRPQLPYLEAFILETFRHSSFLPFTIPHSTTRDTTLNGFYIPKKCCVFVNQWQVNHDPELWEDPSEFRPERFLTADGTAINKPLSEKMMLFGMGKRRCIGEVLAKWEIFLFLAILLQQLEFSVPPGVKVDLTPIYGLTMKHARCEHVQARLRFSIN
Briefly: Reaction phenotyping with rCYP1A2. It is filed as in vitro ADME. As for the experimental part:
For FFA and nFFA reaction phenotyping experiments, LC‐MS/MS experiments were performed using an API 4000 QTRAP or QTRAP 5500 mass spectrometer (SCIEX) with positive electrospray ionization. Chromatography was performed using an Atlantis dC18 analytical column (100 × 2.1 mm, 5 µm; Waters Corporation). Mobile phases were 0.2% v/v formic acid in water and 0.2% v/v formic acid in methanol. FFA and nFFA were eluted at a flow rate of 0.5 mL/min with a linear gradient of 40%−95% methanol from 0.20−2.1 min. The mass transitions monitored were 232.0>109.0 for FFA, 204.0>159.0 for nFFA, 348.0>330.0 for 1’‐hydroxymidazolam‐d4 internal standard (FFA reaction phenotyping), and 262.0>244.0 for hydroxybupropion‐d6 internal standard (nFFA reaction phenotyping). Analyst Instrument Control and Data Processing software (v. 1.6.1) was used for collecting and integrating data (SCIEX). Calibration curves ranging from 1.25 µM−0.01 µM were used to quantify nFFA. Relative quantitation was used to approximate the amount of FFA test material used.
Methods used to evaluate the role of CYP450s in the metabolism of FFA have been described.[22], [23], [24] […] Supernatant fractions were analyzed by LC‐MS/MS.

Take `CCNC(C)Cc1cccc(C(F)(F)F)c1` (racemic) [FFA, (RS)‐ethyl (α‐methyl‐3‐trifluoromethylphenethyl)amine]: the “Disappearance of FFA” value (1 μM FFA, 25 pmol rCYP1A2, 60 min) was determined as 23%. Further, the FFA loss (10 μM FFA, rCYP1A2, 60 min) was found to be 22%.
